US12661503B2, “Microcurrent-based skin treatment and pretreatment techniques” (NSE Products, Inc., priority 2022, dated 2026)
“Also recorded” adds a separate entry of the source. Where two headings read alike, the source gives them in different places. Values belong to the compound of their own block, whether it stands above or below them.

What was measured:
[1] = Franz cell transdermal penetration (receptor fluid) after electrical waveform pretreatment; format: in vitro ADME, human or mammalian; conditions: for transdermal penetration of allantoin, six minute vs three minute pretreatment: CSW at 375, 250 and 125 μA (all current levels)
From the text: (§1) FIG. 7A is a schematic diagram of a Franz cell (or cell system) 700 adapted for testing permeability of a skin sample 710.
An electrical voltage can be applied to or across the sample 720 via an electrode 740 in contact with the skin sample 730, and a conducting lead 750 disposed in a sampling port 760. Suitable materials for electrode 740 and lead 750 include platinum, silver, copper, and other conducting metals, in porous mesh, wafer, plate, or wire form. A heater 770 can be provided to maintain temperature of the Franz cell 710, sample 720 and donor compound 730, during operation of the system 700.
FIG. 7B is a schematic diagram of a Franz cell system 700 adapted for application of a microcurrent treatment to the skin sample 710. In this example, a galvanic unit or waveform generator 780 can be provided to apply a microcurrent waveform to the skin sample 720; e.g., via a negative polarity platinum wire 755 connected to a porous mesh or wafer electrode 740 on the skin surface, with opposite polarity (+) defined by a platinum lead wire or wire electrode 755. Different metals such as copper or silver can also be used, or other suitable conductors. The polarity can also be reversed, or the lead wire 750 can be used to define a ground potential for the Franz cell 710.
Round one testing was performed for three electrical waveforms with allantoin in PBS (phosphate buffered saline) or the NBS agent. The goal was to compare the three electrical waveforms for their capacity to deliver the one or more components in the NBS v1.18 agent. The delivery was tracked via allantoin measurement, used as a skin penetration tracking marker.
(§2) The study was conducted in two phases or parts. Round 1a (Round 1: Phase 1a) evaluated the penetration of 1.0% allantoin (an active) in PBS with a galvanic electrical waveform (GEWF), charge-balanced, symmetric electrical waveform (CSW), and a Program Random Pulse Width Modulation electrical waveform ([…]), in a Franz cell model. Details of the testing process includes receptor well collection and processing (Table 2A), and the epidermal and dermal retention protocol to assess penetration of the tracking markers (Table 2B).
Samples and treatments included 1.0% allantoin in PBS, with no electrical stimulation. The skin sample was also pretreated with a GEWF (Galvanic Electrical waveform) in PBS for thirty-six minutes (36 m), followed by treatment with a PBS topical or agent containing 1.0% allantoin. Pretreatment was also applied with a charge-balanced, symmetric electrical waveform (CSW) in PBS for 36 m, followed by treatment with a PBS agent containing 1.0% allantoin, or treatment with a Program Random Pulse Width Modulation electrical waveform ([…]) in PBS for 36 m followed by application of a PBS agent with 1.0% allantoin.
(§3) The microcurrent dosage delivered ranged up to 375 microampere (μA) for a twelve minute cycle, repeated for three cycles. Receptor fluid collection was measured at time t=0 (before and immediately after the topical sample treatment), at the end of waveform cycle 1 (t=12 min), at the end of waveform cycle 3 (t=36 m); and at 1 hour (1 h), 6 h and 24 h intervals post-pretreatment with the electrical waveform and treatment with the selected topical agents.
Round 1b (Round 1: Phase 1b) testing included evaluation of the NBS v1.18 agent with the GEWF (galvanic electrical waveform), CSW (charge-balanced, symmetric electrical waveform) and […] (Program Random Pulse Width Modulation electrical waveform), in a Franz cell model as described herein. Samples and treatments included the NBS v1.18 agent containing 0.1% allantoin, with no electrical stimulation. […]

[2] = Franz cell epidermal and dermal retention of tracking marker; format: in vitro ADME, human or mammalian
Method: as §1, §2
as §3, with “Receptor” for “The microcurrent dosage delivered ranged up to 375 microampere (μA) for a twelve minute cycle, repeated for three cycles. Receptor”
Receptor fluid collection was performed at time t=0 (before and immediately after topical sample treatment), at the end of waveform cycle one (12 m), at the end of waveform cycle three (36 m), and at 1 h, 6 h and 24 h intervals post pre-treatment with the electrical waveform, and treatment with the topical agent.
(§4) The number of Franz cell replicates (Franz cells) per sample was n=3 for non-electrical pretreated samples, and n=6 for pulsed electrical pretreatment samples. The number of Franz cell replicates may also vary. The current flow (I) is given in microamperes (μA), and the pulse time (PT) in minutes (mi) where zeros indicate no electrical current, and no pulse time. In each case, the next include the sample being drawn off (draw off), and post pulse treatment/dosing with phosphate buffered saline (PBS) containing 1.0% allantoin. Assessment times were at post 0.5, 1.0, 6 and 24 hours (hr), assaying for allantoin.

[3] = as above; format: in vitro ADME, human or mammalian; remark: listed apart in the source
[4] = Franz cell tracking marker flux after electrical waveform pretreatment; format: in vitro ADME, human or mammalian
From the text: as §1
FIG. 11A is a bar chart illustrating transdermal allantoin penetration, following selected current treatments. FIG. 11B is a bar chart illustrating allantoin retention in the epidermis and dermis, following the selected treatments. FIG. 11C is a bar chart illustrating allantoin flux, following the selected treatments. The Flus is in arbitrary units, for example μg/cm^2/hr, or other suitable, appropriate or convenient measure, as known in the art.
as §4

[5] = tested on: upper thigh skin of subjects; experiment: Tape stripping assessment for allantoin recovery (LC-MS); format: in vivo; conditions: early tape strips one to five; treated vs untreated upper thigh; week twelve
Method: Cellulite was further evaluated by measuring circumference of upper thigh during each visit. At the end of study completion at twelve weeks, twenty tape strips were removed from the treated upper thigh area of five subjects chosen […] and five control strips were obtained from an untreated site on the upper thigh.
In addition, the circumference of each subject's upper thigh was measured during each visit as an indicator for improvement in slimming and firmness (see M. H. Gold, K. A. Khatri, K. Hails, R. A. Weiss and N. Fournier, “Reduction in thigh circumference and improvement in appearance of cellulite,” J. of Cosmetic and Laser Therapy 13, February 2011, which is incorporated by reference herein, in the entirety and for all purposes). At the end of study, the twenty tape strips were collected from the treated upper thigh area, and from an untreated upper thigh area from five randomly chosen subjects. Five tape strips from both treated and untreated areas of upper thigh were evaluated for accumulation of allantoin using LC-MS spectroscopy.
FIGS. 20A and 20B are scatter plots illustrating a tape stripping assessment for allantoin recovery in the upper thigh. The results include representative, anonymous, arbitrarily-labeled samples (S2 and S4), as compared to corresponding controls. […]

[6] = Round Three, FIG. 15B, 1.0% allantoin in PBS

Compound: Cn1c(=O)c2c(ncn2C)n(C)c1=O [caffeine]
increase in penetration after electrical pre-treatment using PBS vs non-electrical pretreatment, caffeine as tracking marker [1]: greater than fivefold increase

delivery of allantoin after electrical pre-treatment using conductive gel vs non-electrical pretreatment ([1]; FIG. 11A, test #9 and #11 vs #10, conductive gel containing 1.0% allantoin, Ept-36 min): 5
increase in transdermal penetration of allantoin ([1]; Round 1a, FIG. 9A, 1.0% allantoin in PBS after 36 min pretreatment with galvanic, CSW or PRPWM waveform, up to 375 μA): fivefold increase
increase in penetration after electrical pre-treatment using PBS vs non-electrical pretreatment, caffeine as tracking marker ([1]; Round 2b, FIG. 13A, test #1 vs #2, Ept-36 min): greater than fivefold increase
transdermal penetration of allantoin, six minute vs three minute pretreatment ([1]; Round Four, FIG. 16A, NBS agent with 0.1% allantoin left on): increased transdermal penetration
transdermal penetration of allantoin, six minute vs three minute pretreatment ([1]; Round Three, FIG. 15A, 1.0% allantoin in PBS): increased transdermal penetration
allantoin retention in epidermis and dermis, GEWF vs CSW and PRPWMEWF ([2]; Round 1a, FIG. 9B, 1.0% allantoin in PBS, 24 h): slightly more retention
epidermal retention at pretreatment current of about 375 μA [2, 6]: increased epidermal retention
retention in the dermis at lower microcurrent levels (250 μA, 125 μA) [2, 6]: higher retention in the dermis
skin retention, six minute vs three minute pretreatment ([2]; Round Three, FIG. 15B, all microcurrent levels): higher skin retention
increase in penetration of allantoin in both epidermis and dermis vs non-electrically stimulated sample with PBS ([3]; FIG. 11B, test #3 vs #4): Greater than fivefold increase
skin allantoin delivery in epidermis and dermis, electrically treated conductive gel vs non-stimulated ([3]; FIG. 11B, test #9 and #11 vs #10): 5
increase in penetration in both epidermis and dermis vs non-electrically stimulated sample with PBS ([3]; Round 2b (caffeine), FIG. 13B, test #1 vs #2): greater than fivefold increase
epidermal and dermal retention of allantoin, six minute vs three minute pretreatment ([3]; Round Four, FIG. 16B, NBS 0.1% allantoin, about 375 μA): increased epidermal and dermal retention
allantoin retention, three minute and six minute pretreatments ([3]; Round Four, FIG. 16B, about 125 μA): comparable allantoin retention
difference in allantoin retention in the dermis ([3]; test #5 vs #6, NBS agent 0.1% allantoin, dermis): not necessarily a substantial difference
increase in penetration of allantoin upon electrical pre-treatment vs non-electrical pretreated sample with PBS (flux chart) ([4]; FIG. 11C, test #3 vs #4): Greater than fivefold increase
increase in skin allantoin delivery, electrical pre-treatment with conductive gel vs non-stimulated (flux chart) ([4]; FIG. 11C, test #9 and #11 vs #10): 5
increase in penetration upon electrical pre-treatment vs non-electrical pretreatment sample with PBS (flux chart) ([4]; Round 2b (caffeine), FIG. 13C, test #1 vs #2): greater than fivefold increase
allantoin flux, six minute vs three minute electrical pretreatment ([4]; Round Four, FIG. 16C, all current levels, 0.5 h to 24 h after pretreatment): higher allantoin flux
allantoin flux at initial time point ([4]; Round Three, FIG. 15C, all current levels, 30 m to 1 h following pretreatment): increased allantoin flux
Compound: NC(=O)NC1NC(=O)NC1=O (stereo not shown) [allantoin]
allantoin retention in the dermis ([3]; Round Four, FIG. 16B, about 250 μA, six minute pretreatment): stimulate additional allantoin retention in the dermis
allantoin retention in the epidermis ([3]; Round Four, FIG. 16B, about 250 μA, three minute pretreatment): stimulate allantoin retention in the epidermis
allantoin flux at later time point ([4]; Round Three, FIG. 15C, 1-6 h): substantially no flux; also recorded: little or substantially no flux
allantoin recovered by tape stripping vs background (control) allantoin level [5]: increased over the background skin allantoin level
